In patent US20200325505A1, “FILAMENTOUS FUNGI CAPABLE OF PRODUCING VERY LONG CHAIN FATTY ACIDS” (UT-Battelle, LLC, priority 2019, published 2020):
Residues, ends and D or L forms follow the SMILES beside them.

Columns and labels:
[1] = test system: Mortierella elongata AG77; assay: Carbon source utilisation in Biolog 96-well plates, formazan formation after tetrazolium addition; assay type: cell-based; settings: for Metabolized: Metabolized = more formazan formation than a control containing no carbon source, observed visually at 2 h, 24 h, 148 h; for Carbon sources that Mortierella elongata AG77 can metabolize: summary of Table 3
Method in brief: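 Scoring was by eye at 2, 24 and 148 h after tetrazolium chloride went into wells preincubated 24 h at 21 °C. Wells held lyophilised candidate carbon or nitrogen sources in pH 5.5 mineral medium lacking that nutrient, inoculated with 3 mm PDA-grown mycelial plugs. Formazan above the no-carbon control counted as metabolised and below it as toxic.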

[2] = test system: Mortierella elongata AG77; assay: Nitrogen source utilisation in Biolog 96-well plates, formazan formation after tetrazolium addition; assay type: cell-based; settings: for Metabolized: Metabolized = more formazan formation than a control containing no nitrogen source, observed visually at 2 h, 24 h, 148 h; for Nitrogen sources that Mortierella elongata AG77 can metabolize: text summary of Table 4
Procedure: Two 300 mL volumes of growth medium comprising 1 g/L KH2PO4, 1 g/L MgSO4 7H2O, 0.1 g/L CaCl2, 0.02 g/L FeNaEDTA, 0.1 g/L NaCl, and either 1 g/L NH4NO3 or 20 g/L sucrose were prepared. […] Aliquots of 200 μL of carbon-free medium or nitrogen-free medium were pipetted into each well of a set of 96-well plates previously prepared with lyophilized putative carbon or nitrogen sources (Biolog Inc., Hayward, Calif.). Inocula were prepared by perforating a culture of Mortierella elongata AG77 grown on 20 g/L potato dextrose agar with a 3 mm diameter cork borer and separating the surface mycelial mat from the solid growth medium using tweezers. Each well was inoculated with one inoculum. Cultures were incubated at 21° C. for 24 hours to allow metabolic changes to stabilize, and then 100 μL of 3 g/L tetrazolium chloride in water was added to each well.
Conclusions were based on rate and intensity of formazan formation using the 3-(4,5-dimethylthiazol-2-yl)-2,5-diphenyltetrazolium bromide ([…]) assay. “Metabolized” indicates more formazan formation than a control containing no nitrogen source, and “Toxic” indicates less formazan formation than a control containing no nitrogen source, “Metabolized” and “Toxic” assignments are mutually exclusive. In this example, a compound may be “Metabolized” or “Toxic,” but not both.

[3] = compound as carbon source, Toxic = less formazan formation than a control containing no carbon source
[4] = compound as nitrogen source, Toxic = less formazan formation than a control containing no nitrogen source

SMILES	Metabolized ([1]; compound as carbon source)	Toxic [1, 3]	Carbon sources that Mortierella elongata AG77 can metabolize [1]	Metabolized ([2]; compound as nitrogen source)	Toxic [2, 4]	Toxic [1]	Toxic [2]	Nitrogen sources that Mortierella elongata AG77 can metabolize [2]
NCCO [2-Aminoethanol]	yes	no	can metabolize	no	no			
CC(N)=O [Acetamide]	no			no	no			
Nc1ncnc2c1ncn2[C@@H]1O[C@H](CO)[C@@H](O)[C@H]1O [Adenosine]	yes		can metabolize	no		no	no	
C[C@@H](N)C(=O)O [D-Alanine]	yes		can metabolize	yes		no	no	can metabolize
N[C@H](CC(=O)O)C(=O)O [D-Aspartic Acid]	yes		can metabolize	no		no	no	
N[C@H]1C(O)O[C@H](CO)[C@@H](O)[C@@H]1O (stereo partly drawn) [D-Glucosamine]	yes		can metabolize	no		no	no	
N[C@H](CO)C(=O)O [D-Serine]	no			no		no	no	
NC(=O)[C@@H](O)[C@@H](O)[C@H](O)[C@@H](O)C=O [Glucuronamide]	yes	no	can metabolize	no	no			
NCC(=O)O [Glycine]	no			yes		no	no	can metabolize
NCC(=O)N[C@@H](CCC(=O)O)C(=O)O [Glycyl-L-Glutamic Acid] (H-Gly-Glu-OH)	no	no		no	no			
OC[C@H]1O[C@@H](n2cnc3c(O)ncnc32)[C@H](O)[C@@H]1O [Inosine]	yes	no	can metabolize	no	no			
C[C@H](N)C(=O)O [L-Alanine]	no			yes		no	no	can metabolize
C[C@H](N)C(=O)NCC(=O)O [L-Alanyl-Glycine] (H-Ala-Gly-OH)	no			no		no	no	
N=C(N)NCCC[C@H](N)C(=O)O [L-Arginine]	yes		can metabolize	no		no	no	
NC(=O)C[C@H](N)C(=O)O [L-Asparagine]	no			no		yes	no	
N[C@@H](CC(=O)O)C(=O)O [L-Aspartic Acid]	yes		can metabolize	no		no	no	
N[C@@H](CCC(=O)O)C(=O)O [L-Glutamic Acid]	no	no		yes	no			can metabolize
NC(=O)CC[C@H](N)C(=O)O [L-Glutamine]	no			yes		yes	no	can metabolize
N[C@@H](Cc1c[nH]cn1)C(=O)O [L-Histidine]	no			yes		no	no	can metabolize
N[C@@H](CCO)C(=O)O [L-Homoserine]	no			yes		no	no	can metabolize

SMILES	Metabolized ([1]; compound as carbon source)	Toxic [1, 3]	Carbon sources that Mortierella elongata AG77 can metabolize [1]	Metabolized ([2]; compound as nitrogen source)	Toxic [2, 4]	Toxic [1]	Toxic [2]	Nitrogen sources that Mortierella elongata AG77 can metabolize [2]
CC[C@H](C)[C@H](N)C(=O)O [L-Isoleucine]	no			yes		no	no	can metabolize
CC(C)C[C@H](N)C(=O)O [L-Leucine]	no			no		no	no	
NCCCC[C@H](N)C(=O)O [L-Lysine]	no			no		no	no	
CSCC[C@H](N)C(=O)O [L-Methionine]	no			no		no	no	
N[C@@H](Cc1ccccc1)C(=O)O [L-Phenylalanine]	yes	no	can metabolize	no	no			
O=C(O)[C@@H]1CCCN1 [L-Proline]	yes		can metabolize	yes		no	no	can metabolize
O=C1CC[C@@H](C(=O)O)N1 [L-Pyroglutamic Acid]	no			no		no	no	
N[C@@H](CO)C(=O)O [L-Serine]	no			no		no	no	
C[C@@H](O)[C@H](N)C(=O)O [L-Threonine]	yes		can metabolize	no		no	no	
CC(C)[C@H](N)C(=O)O [L-Valine]	no			no		no	no	
CC(=O)N[C@H]1C(O)O[C@H](CO)[C@H](O)[C@@H]1O (stereo partly drawn) [N-Acetyl-D-Galactosamine]	no	no		yes	no			can metabolize
CC(=O)N[C@H]1C(O)O[C@H](CO)[C@@H](O)[C@@H]1O (stereo partly drawn) [N-Acetyl-D-Glucosamine]	yes	no	can metabolize	yes	no			can metabolize
CC(=O)N[C@@H](CCC(=O)O)C(=O)O [N-Acetyl-L-Glutamic Acid]	yes		can metabolize	no		no	no	
NCCc1ccccc1 [Phenylethyl-amine]	no	no		no	no			
NCCCCN [Putrescine]	yes		can metabolize	no		no	no	
Cc1cn([C@H]2C[C@H](O)[C@@H](CO)O2)c(=O)[nH]c1=O [Thymidine]	no			no		no	no	
NCCc1ccc(O)cc1 [Tyramine]	yes		can metabolize	no		no	no	
O=c1ccn([C@@H]2O[C@H](CO)[C@@H](O)[C@H]2O)c(=O)[nH]1 [Uridine]	no			no		no	no	
NCCCC(=O)O [γ-Amino Butyric Acid]	no			yes		no	no	can metabolize
NCCCCC(=O)O [δ-Amino Valeric Acid]	no			no		no	no	
